pIC50: −log10 of the molar value.
Legend:
rat BMECs = assay: Cytotoxicity of apocynin derivatives on rat BMECs (MTT, 24 h); type: cell-based; settings: 100 μM, vs control, P < 0.05
Experimental: Rat brain microvascular endothelial cells (BMECs) were separated from the cerebral cortex of 18-day-old male Sprague-Dawley rats as described previously ([Biegel et al., 1995]). Briefly, the cerebral cortical tissues were dissected from meninges after the rats were sacrificed, then the tissues were homogenated in physiological buffer solution (pH 7.4). After centrifugation, the pellets were collected, and the microvascular segments were then digested with 0.1% collagenase II at 37°C for 1 h. […] The second passage was used for co-culture of BBB cellular models.
Rat BMECs were collected and seeded into 96-well culture plates at a density of 7.5 × 10^3 cells/well overnight. The cells were treated with different concentrations of the compounds (10, 20, and 100 μM) for 24 h, respectively. Then, 20-μl MTT (5 mg/ml) in fresh medium was added to each well and incubated for another 4 h. Finally, 150μl dimethyl sulfoxide (DMSO) was added to dissolve formazan crystals, and the absorbance was detected at 490 nm in a multiwall-plate reader (BioTek ELx800).

rat C6 glioma cells = assay: Anti-glioma MTT assay, C6 cells; type: cell-based; settings: for pIC50: Rattus norvegicus, C6 cells
Experimental: (§1) The anti-glioma effects of these compounds were evaluated by MTT assay in rat C6 glioma cells, human glioma U87 and U251 cells, and BMECs cells. Brieﬂy, cells were seeded at the density of 4,000 cells/well in 96-well plates overnight. For the first screening, the cells were incubated with 10, 20, 100 μM compounds for 48 h. Then cell viabilities were detected by MTT assay as described above. For the second screening, the cells were incubated with 6.25-, 12.5-, 25-, 50-, and 100μM compounds for 48 and 96 h, and then detected by MTT assay. The OD of each well was measured at 490 nm on an ELISA microplate reader. The inhibitory rates and IC50 values were calculated.

human glioma U251 cells = assay: Anti-glioma MTT assay, U251 cells; type: cell-based
Experimental: as §1

C6 glioma = assay: Rat C6 glioma model; type: in vivo; settings: C6 glioma-bearing Wistar rats, 25 mg/kg i.p. daily
Experimental: C6 glioma model was established as previously reported ([Xu etal., 2016]). The C6 glioma cells in the logarithmic growth phase were collected for implantation. Male Wistar rats (male, 160–180g) were anesthetized with 10% chloral hydrate, and then a hole (1 mm diameter) was drilled in the cranial bone. C6 cells in PBS were injected slowly (3 × 10^6 cells/rat).
Tumors in the brains of the rats were detected by Bruker 7.0 T Micro-MRI using a T2W RARE sequence (TR/TE 3000/15 ms; slice thickness, 1.0 mm; flip angle, 180°; Matrix 256×256; slice gap, 1.0 mm; FOV, 33×33 mm; time, 4.8 min) 7 days after implantation. Tumor volumes (V) were calculated by the following formula: V = (4/3 × π × LHW)/8, where L is the maximum anteroposterior diameter, H and W are the height and width. Then the rats were sacrificed, and the brain tissues were fixed with formalin, embedded in paraffin, sectioned, and subjected to hematoxylin/eosin (HE) staining and immunohistochemical staining for glial fibrillary acidic protein (GFAP) as previously described ([Xu et al., 2016]). The sections from each animal were analyzed by a pathologist. Only rats with maximum intracerebral tumor diameter of >5.0 mm were used.
After the successful implantation, the rats were randomly divided into […] and treated with different drugs by intraperitoneal injection daily: control group (PBS, n = 6), TMZ group (25 mg/kg, n = 6), D14 group (25 mg/kg, n = 6), and D31 group (25 mg/kg, n = 6). The body weights were recorded everyday after administration. Thirteen days after treatment, brain tumors in the rats were detected by Bruker 7.0 T Micro-MRI as described above. Tumor volumes were calculated and recorded as above.

ROS levels in C6 cells = assay: Intracellular ROS levels (DCF, flow cytometry), C6 cells; type: cell-based, rat; settings: 20 and 50 μM, 48 h, P < 0.05
Experimental: (§2) Intracellular reactive oxygen species (ROS) levels were detected using Reactive Oxygen Species Assay Kit (Jiancheng Bioengineering, Nanjing, China) as per the manufacturer’s instruction. Brieﬂy, after treatment with indicated concentrations of test compound (20, 50 μM) for 48 h, the cells were incubated in 1 ml 2,7-dichloroﬂuorescin diacetate working solution (100 μM) for 30 min at 37°C in the dark, and washed with PBS. Then ﬂuorescence intensities of intracellular DCF were detected using a FACS Calibur ﬂow cytometer (Becton-Dickinson, San Jose, CA, USA). H2O2 treatment group was used as the positive control group.

ROS levels in U87 cells = assay: Intracellular ROS levels (DCF, flow cytometry), U87 cells; type: cell-based, human; settings: 20 and 50 μM, 48 h, P < 0.05
Experimental: as §2

U87 cells = assay: Apoptosis by Annexin V-FITC/PI staining, U87 cells; type: cell-based, human; settings: 48 h, mean ± SD
Experimental: The effects of test compound on apoptosis were detected by Annexin V-FITC/PI staining. Briefly, after treatment with indicated concentrations of test compounds (20, 50 μM) for 48 h, the cells were collected and resuspended in 500-μl detection buffer. Then 5μl PI and 5μl Annexin V-FITC were added to the detection buffer. Then, cells were incubated for 15 min in the dark and analyzed using Flow cytometer (Becton Dickinson) and WinMDI 2.8 software (Scripps Institute, La Jolla, CA, USA).

pIC50 (rat C6 glioma cells; 48 h): 4.45
pIC50 (rat C6 glioma cells; 96 h): 4.59
pIC50 (human glioma U251 cells; U-251, 48 h): 4.40
pIC50 (human glioma U251 cells; U-251, 96 h): 4.46
SMILES: COc1cc(C(=O)CSCc2ccccc2Cl)ccc1O [Compound D31, 2-((2-Chlorobenzyl)thio)-1-(4-Hydroxy-3-Methoxyphenyl)Ethan-1-One]
Effect on cell viability of rat BMECs (rat BMECs): significantly inhibit the cell viability
Anti-proliferation effect on C6 cells (first screening) (rat C6 glioma cells; 10, 20, 100 μM, 48 h, compared with D1, P < 0.05): significant anti-proliferation effects
Body weight changes vs control group (C6 glioma): no obvious body weight changes
Tumor volume vs control group (C6 glioma; MRI 13 days after treatment): significantly decreased
Fluorescence intensity of DCF (ROS generation) vs control (ROS levels in C6 cells): significant increases
Fluorescence intensity of DCF (ROS generation) vs control (ROS levels in U87 cells): significant increases
Apoptotic cell rate (U87 cells; 20 μM): 16.7 ± 3.1%
Apoptotic cell rate (U87 cells; 50 μM): 29.7 ± 4.7%
